Results taken from article PMC4865820, “Branched Peptide, B2088, Disrupts the Supramolecular Organization of Lipopolysaccharides and Sensitizes the Gram-negative Bacteria” (Scientific Reports, 2016).
Positions of bridges follow the written chain, without caps; N, C: chain ends. Non-standard residues stand in square brackets, D forms with d. Residues, ends and D or L forms follow the SMILES beside them. Chains are numbered I, II in the order given. *: point of attachment. X1 = CC[C@H](C)CCCCC(=O)*; Dab = NCC[C@H](N)C(=O)O

Assays:
[1] = test system: LPS (E. coli serotype 055:B5); assay: BODIPY TR cadaverine (BC) displacement assay with LPS; format: binding; conditions: 5 mM HEPES pH 7.4, duplicates; for ED50 (50% displacement of BC dye from LPS; also called BC50): fluorescence ex 580/em 620 nm, with respect to PMB; for EC50: no unit in table, ED50 values in μM, read-out: BC50 (LPS binding)
Procedure, shortened: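 Peptides (0.02–25.6 μM, two-fold dilutions) mixed 1:1 with BODIPY TR cadaverine:LPS (E. coli 055:B5) mixture in 5 mM HEPES pH 7.4; fluorescence at 580/620 nm. Displacement normalized to polymyxin B (Fmax) and probe:LPS alone (F0); ED50 from curve fit, duplicates.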

P. aeruginosa ATCC 9027 = assay: Mice model of infectious keratitis; format: in vivo, C57BL6 mice; conditions: for Corneal bacterial burden: 0.15% gatifloxacin or 0.05% B2088 alone
Experimental: The marked synergism between B2088 and gatifloxacin in the mammalian cell culture model prompted us to investigate the efficacy of the combinations in vivo. A mouse model of keratitis was used to examine the efficacy of peptide-antibiotics combinations. After infection of the cornea with P. aeruginosa ATCC 9027 strains, mice were treated with gatifloxacin (0.15% w/v) or B2088 (0.05%) alone as well as gatifloxacin (0.15%) in combination with B2088 (0.05% w/v). […] (Fig. 7c,d and Supplementary Fig. S3).
Wild type C57BL6 (6–8 weeks old and weighs about 20-30 gram) female mice purchased from National University of Singapore were used for this study. P. aeruginosa ATCC 9027 was grown overnight in TSA (Tryptic Soy Agar) at 37 °C. Concentration of 3 × 10^8 bacterial stock was prepared for mice corneal infection with United States Phosphate Buffer (USP) by resuspending few colonies from the overnight cultured TSA plates.
Healthy mice with good corneal clarity were chosen for this study through careful monitoring with slit-lamp biomicroscopy. A total of 60 mice were used for this study (n = 12 for 5 groups) at different time points (day1, day2, day3 post treatment). The animals were anesthetized subcutaneously by 0.2 ml of ketamine (100 mg/ml) and 0.1 ml of xylazil (20 mg/ml) in 0.7 ml of normal saline (0.08 ml/mice). […] Topical application of bacteria suspension (10 μl) was applied to the scratched cornea. All the animals had been treated with the antibiotics or peptide/antibiotics combinations (3 times/day) started from day1 post infection.
At post treatment day1, day 2 and day 3, four animals from each group were euthanized. The infected corneas was dissected and processed for colony counting. Single individual cornea from different groups was homogenized in sterile 0.9% NaCl containing 0.25% BSA and diluted serially (10^1 to 10^2 fold dilution), plated in duplicates on TSA plates and incubated for 48 h at 37 °C. The number of viable bacteria was enumerated as before.

K. pneumonia 07955 = assay: Checkerboard assay; format: cell-based, K. pneumoniae; conditions: for Fractional inhibitory concentration of B2088 used for FICI calculation: first number in parenthesis, in combination with the labelled antibiotic; for Fractional inhibitory concentration of antibiotic used for FICI calculation: second number in parenthesis, in combination with B2088
Experimental: (§1) The synergism between peptides with conventional antibiotics was evaluated using checkerboard assays. For a comparison polymyxin B (PMB) was also tested against each antibiotic. From their stock solutions, two-fold dilutions of each antibiotic and peptide to 1× MIC were prepared in MHB. 50 μl of each peptide concentration was added into the wells of a 96-well polystyrene plates (SPL Life Sciences Co. Ltd, Korea) in a horizontal orientation and the same volume of each antibiotic concentration were then added in a vertical orientation. Bacterial suspensions were prepared in MHB to yield final cell density of ~10^6 CFU/ml and 100 μl of bacterial suspension was mixed with each peptide-antibiotic combinations. This procedure was repeated for wells containing 200 μl of peptide alone and 200 μl of antibiotic alone in various concentrations. The positive and negative controls contained 200 μl of inoculum and MHB alone respectively. The plates were incubated at 37 °C for 24 hours and the optical density at 600 nm (OD600) was monitored as before. Fractional inhibitory concentration index (FICI) for all antibiotic- peptide combinations was calculated through the summation of (MIC of peptide in the combination/ MIC of peptide alone) and (MIC of antibiotics in combination/MIC of antibiotic alone). The experiments were performed in two independent duplicates and the combinations that gave the lowest FICI values was reported.

K. pneumonia 31158 = assay: Checkerboard assay; format: cell-based, K. pneumoniae; conditions: for Fractional inhibitory concentration of B2088 used for FICI calculation: first number in parenthesis, in combination with the labelled antibiotic; for Fractional inhibitory concentration of antibiotic used for FICI calculation: second number in parenthesis, in combination with B2088
Experimental: as §1

K. pneumonia 4299 = assay: Checkerboard assay; format: cell-based, K. pneumoniae; conditions: for Fractional inhibitory concentration of B2088 used for FICI calculation: first number in parenthesis, in combination with the labelled antibiotic; for Fractional inhibitory concentration of antibiotic used for FICI calculation: second number in parenthesis, in combination with B2088
Experimental: as §1

Compound | ED50 (50% displacement of BC dye from LPS; also called BC50) [1] | EC50 [1] | Reduction of antibiotic use in the presence of B2088 (P. aeruginosa ATCC 9027; 0.05% B2088 with gatifloxacin) | Corneal bacterial burden (P. aeruginosa ATCC 9027) | Fractional Inhibitory Concentration Index of B2088 with the antibiotic (K. pneumonia 07955) | Fractional inhibitory concentration of B2088 used for FICI calculation (K. pneumonia 07955) | Fractional inhibitory concentration of antibiotic used for FICI calculation (K. pneumonia 07955) | Fractional Inhibitory Concentration Index of B2088 with the antibiotic (K. pneumonia 31158) | Fractional inhibitory concentration of B2088 used for FICI calculation (K. pneumonia 31158) | Fractional inhibitory concentration of antibiotic used for FICI calculation (K. pneumonia 31158) | Fractional Inhibitory Concentration Index of B2088 with the antibiotic (K. pneumonia 4299) | Fractional inhibitory concentration of B2088 used for FICI calculation (K. pneumonia 4299) | Fractional inhibitory concentration of antibiotic used for FICI calculation (K. pneumonia 4299) | Corneal clarity and bacterial load (P. aeruginosa ATCC 9027; topical 0.3% gatifloxacin, 3 times/day, vs PBS-treated mice)
CC(C)[C@H](NC(=O)[C@H](CCCCN)NC(=O)[C@H](CCCNC(=N)N)NC(=O)CNC(=O)[C@@H](N)CCCNC(=N)N)C(=O)N[C@H](C(=O)N[C@@H](CCCNC(=N)N)C(=O)N[C@@H](CCCNC(=N)N)C(=O)NCCCC[C@H](NC(=O)[C@H](CCCNC(=N)N)NC(=O)[C@H](CCCNC(=N)N)NC(=O)[C@@H](NC(=O)[C@@H](NC(=O)[C@H](CCCCN)NC(=O)[C@H](CCCNC(=N)N)NC(=O)CNC(=O)[C@@H](N)CCCNC(=N)N)C(C)C)C(C)C)C(=O)N[C@@H](CCCCN)C(=O)O)C(C)C [B2088] (I: H-RGRKVVRRKK-OH / II: H-RGRKVVRR; amide I:9-II:C; N-terminus and C-terminus assumed) | 1.92 ± 0.03 µM | 1.9 ± 0.1 µM | about 50% | increased bacterial burden |  |  |  |  |  |  |  |  |  | 
COc1c(N2CCNC(C)C2)c(F)cc2c(=O)c(C(=O)O)cn(C3CC3)c12 (centres unmarked) [Gatifloxacin] |  |  |  | increased bacterial burden | 0.63 | 0.13 | 0.5 | 0.56 | 0.06 | 0.5 | 0.56 | 0.06 | 0.5 | clear cornea and less bacterial load
CC[C@H](C)CCCCC(=O)N[C@@H](CCN)C(=O)N[C@H](C(=O)N[C@@H](CCN)C(=O)N[C@H]1CCNC(=O)[C@H]([C@@H](C)O)NC(=O)[C@H](CCN)NC(=O)[C@H](CCN)NC(=O)[C@H](CC(C)C)NC(=O)[C@@H](Cc2ccccc2)NC(=O)[C@H](CCN)NC1=O)[C@@H](C)O [Polymyxin B, polymyxin B, reference compound] (X1-[Dab]T[Dab][Dab][Dab][dF]L[Dab][Dab]T; lactam 4-C (inferred); N-terminus assumed) | 1.56 ± 0.02 µM | 1.56 ± 0.02 µM |  |  |  |  |  |  |  |  |  |  |  | 
NC[C@H]1O[C@H](O[C@H]2[C@H](O)[C@@H](O[C@H]3O[C@H](CO)[C@@H](O)[C@H](N)[C@H]3O)[C@H](N)C[C@@H]2N)[C@H](N)C[C@@H]1O [Tobramycin] |  |  |  |  | 0.75 | 0.5 | 0.25 | 0.25 | (0.125,0.125) | (0.125,0.125) | 0.25 | (0.125,0.125) | (0.125,0.125) | 
